The values that follow come from patent publication US4804665A, “Azaspiro compounds and their use” (Takeda Chemical Industries, Ltd., priority 1986, dated 1989).

Data set [1] relates to CO2-induced amnesia in mice. Nature of the data set: Effect on CO2-induced amnesia in mice (passive avoidance response). Type of data set: in vivo, mice (male ICR). The conditions noted are these: p.o.; for minimal effective dose: Mus musculus, po, mice, read-out: Anti-amnesia MED (minimum effective dose for CO2-induced amnesia); for Anti-amnesia (latency, percent change of the mean time of the vehicle-treated control group): 30 min before the test, saline = 100. Here is the method: Effect on CO2 -induced amnesia in mice Effect of the compound (I) on […] of passive avoidance response, induced by exposing mice to 100% CO2 gas, was evaluated. Male ICR mice (Japan Clea) aged 5 weeks were used. The experimental apparatus consisted of two chambers, in which one illuminated chamber (9×9×25 cm) was connected to a dark chamber (25×25×30 cm) with a guillotine door. Each mouse was placed in the illuminated chamber and then allowed to enter the dark one. When the mouse entered the dark chamber, the door was closed and AC 0.5 mA footshock was applied to the floor grid of the dark chamber. The mouse can memorize the experience after receiving the uncomfortable stimulus for a few weeks. Next, the consolidation processes of memory were disturbed by an experimental manipulation: Each mouse was placed under the hypoxic condition by being placed into a 4L desiccator filled with 100% CO2 gas, immediately after receiving the footshock in the dark chamber. When his respiratory function was stopped, the mouse was taken out from the desiccator and given an artificial respiration till recovering spontaneous respiration. This procedure disturbed the consolidation of the memory (experience of footshock). On the next day, a retention test was performed to see whether the mouse memorized the footshock or not. In the test, the mouse was again placed in the illuminated compartment and the latency to enter the dark compartment was measured. The mice subjected to hypoxia entered the dark compartment with short latency, 10-20 sec. […] The ameliorating effect of compounds on the amnesia induced by hypoxia was evaluated by the latency time, and was expressed as the percent change of the mean time of the vehicle-treated control group (Table 6.).

Another data set relates to mice. Nature of the data set: General Symptoms (Side Effects) in mice. Type of data set: in vivo. More on the design: key: +++: marked; ++: moderate; +: mild; -: nondetected. The conditions noted are these: i.p., observed for 4 hours; for Hypothermia / Sedation / Tremor: central effect; for Diarrhea / Mydriasis / Salivation: peripheral effect. How it is done: General Symptoms (Side Effects) Four mice were used for each group. Mice were placed in stainless steel cages (13×18×25 cm) and after a 1-hr habitation period the compounds were administered. […] Peripheral and central effects of the compounds were estimated with the incidences of diarrhea, salivation and mydriasis and with the incidences of tremor and sedation and a grade of hypothermia, respectively. The compounds which were soluble in saline were solubilized in saline and the other were suspended in 5% arabic gum solution. Each compound was administered intraperitoneally (i.p.).

Data set [2] can be described thus: LD50 value and Therapeutic index. The note with it: mouse, in vivo, po; for LD50: mice; for selectivity ratio: ratio of LD50 value to MED for CO2-induced amnesia. The text has this:
LD50 value and Therapeutic index
Ten mice were used for each group. LD50 value and therapeutic index were estimated with the dose (mg/kg, p.o.) which induced death in 50% of mice and with a ratio of LD50 value to a minimum effective dose (MED) for CO2 -induced amnesia, respectively.

[3] abbreviates: dose 0.3 mg/kg, * P < 0.05, ** P < 0.01.

The structures appear in SMILES notation. Where a name gives a salt, the structure may show the parent alone.

With `CON1C(=O)CC2(CCNCC2)C1=O` [Example 9, 2-Methoxy-2,8-diazaspiro[4,5]decane-1,3-dionehydrochloride], the minimal effective dose in data set [1] was found to be 0.1 mg/kg. For the same compound, the “Anti-amnesia (latency, percent change of the mean time of the vehicle-treated control group)” value in data set [1] (dose 0.1 mg/kg, * P < 0.05) came to 227%. In data set [1] (setting [3]), the “Anti-amnesia (latency, percent change of the mean time of the vehicle-treated control group)” value is 321%. For the same compound, in the data set on mice, the Hypothermia entry is “+”, the Sedation result is given as “++”, the Tremor entry is “-” and the Diarrhea result was “++”. Further, in the data set on mice, the Mydriasis entry is recorded as “-” and the Salivation result is given as “+++”. Besides, in data set [2], the 50% lethal dose (LD50) was found to be 2010 mg/kg and the selectivity ratio was 20100.

With `CON1C(=O)CC2(CCN(C(=O)OCCBr)CC2)C1=O` [Example 22, 8-(2-Bromoethoxycarbonyl)-2-methoxy-2,8-diazaspiro[4,5]decane-1,3-dione], the “Anti-amnesia (latency, percent change of the mean time of the vehicle-treated control group)” value in data set [1] (dose 1.0 mg/kg, * P < 0.05) turned out to be 311%. Moreover, in the data set with mice, the Hypothermia entry is recorded as “+”, the Sedation result was “+”, the Tremor entry was “-” and the Diarrhea entry is on record as “+”. In addition, in the data set on mice, the Mydriasis result is on record as “+” and the Salivation result is given as “+”.

Turning to `CON1C(=O)CC2(CCN(C)CC2)C1=O.Cl` [Example 1, 2-Methoxy-8-methyl-2,8-diazaspiro[4,5]decane-1,3-dione hydrochloride], the “Anti-amnesia (latency, percent change of the mean time of the vehicle-treated control group)” value in data set [1] (dose 0.1 mg/kg, * P < 0.05) amounted to 277%. Besides, in the data set on mice, the Hypothermia entry is “-”, the Sedation entry is “++”, the Tremor entry was “++” and the Diarrhea result is given as “-”. Further, in the data set with mice, the Mydriasis entry is on record as “-” and the Salivation result was “+++”.

Regarding `CCN1C(=O)CC2(CCN(C)CC2)C1=O` [RS-86, reference compound], the minimal effective dose in data set [1] stood at 0.3 mg/kg. Besides, in data set [1] (setting [3]), the “Anti-amnesia (latency, percent change of the mean time of the vehicle-treated control group)” value is on record as 258%. In addition, in the data set with mice, the Hypothermia entry was “+++”, the Sedation entry is on record as “+++”, the Tremor result is given as “+” and the Diarrhea result is listed as “+++”. In the data set with mice, the Mydriasis result is given as “++” and the Salivation entry was “+++”. In data set [2], the LD50 amounted to 574 mg/kg and the selectivity ratio stood at 1910.
